This is an account of results in patent US20070099855A1 (priority 2003, published 2007).

One data set is described as follows: in vitro. Conditions: African green monkey.
Data set [1] deals with SARS-associated coronavirus. The data set is classed as cell-based. To be noted: added to the culture medium; results not shown.
For a further data set, the system named is CRFK cells. Conditions: cat.
For data set [2], the system named is TGEV (Transmissible gastroenteritis Virus). Nature of the data set: microbe, parasite or virus in culture. The class given is cell-based.
The test system of data set [3] is FipV (Feline infectious peritonitis Virus). The data set is described as follows: microbe, parasite or virus in culture. The class given is cell-based.
The test system of the next data set is FipV. The class given is cell-based, Feline infectious peritonitis Virus. Conditions: 500 μM.
The test system of the next data set is nitrous oxide synthase. The class given is cell-based.
Another data set relates to Vero cells. To be noted: African green monkey.
The subject of a further data set is TGEV. The data set is classed as cell-based, Transmissible gastroenteritis Virus. To be noted: 500 μM.
Data set [4] concerns SARS-associated coronavirus. The class given is cell-based. Conditions: Vero cells, 72 hours after infection.

Bounds are passed on as bounds.

For `O=c1cnn([C@@H]2O[C@H](CO)[C@@H](O)[C@H]2O)c(=O)[nH]1` [Compound 6-azauridine, 6-azauridine], the CC50 in the data set “in vitro” amounted to 104 µg/mL.
`COC(=O)[C@@]1(C)CC[C@]2(C)CC[C@]3(C)C(=CC(=O)C4[C@@]5(C)CCC(OC6OC(C(=O)NN)C(O)C(O)C6OC6OC(C(=O)NN)C(O)C(O)C6O)C(C)(C)C5CC[C@]43C)C2C1` (stereo partly drawn) [Compound 7] gave a CC50 in “in vitro” of 66 µM.
In “in vitro”, `COC(=O)[C@@]1(C)CC[C@]2(C)CC[C@]3(C)C(=CC(=O)C4[C@@]5(C)CCC(OC6OC(CO)C(O)C(O)C6OC6OC(CO)C(O)C(O)C6O)C(C)(C)C5CC[C@]43C)C2C1` (stereo partly drawn) [Compound 8] gave a CC50 of 44 µM.
With `NCCN(CCN)/[N+]([O-])=N/O` [DETANONOate], in data set [1], the SARS-associated coronavirus replication result is “replication was inhibited”.
A word on the EC50: it is the concentration that produces a half-maximal response. Regarding `CC1(C)C(OC2OC(C(=O)O)C(O)C(O)C2OC2OC(C(=O)O)C(O)C(O)C2O)CC[C@@]2(C)C1CC[C@]1(C)C2C(=O)C=C2C3C[C@@](C)(C(=O)O)CC[C@]3(C)CC[C@]21C.N` (stereo partly drawn) [Glycyrrhizin Monoammonium Salt], the “Tox. CRFK cells” value in the data set on CRFK cells is over 1 mM. The “inhibition of CPE, TGEV” value in data set [2] was “Partial inhibition”. Also, the EC50 was under 500 µM in data set [2] (Alphacoronavirus 1, CRFK, 48 h, read-out: EC50, TGEV) and under 500 µM in data set [3] (Alphacoronavirus 1, CRFK, 48 h, read-out: EC50, FipV). The “inhibition of CPE, FipV” value in data set [3] was “Partial inhibition”. Further, the CC50 in “in vitro” was determined as 625 µM.
Regarding `CC1(C)C(OC2OC(C(=O)O)C(O)C(O)C2OC2OC(C(=O)O)C(O)C(O)C2O)CC[C@]2(C)[C@H]3C(=O)C=C4[C@@H]5C[C@@](C)(C(=O)O)CC[C@]5(C)CC[C@@]4(C)[C@]3(C)CC[C@@H]12` (stereo partly drawn) [Glycyrrhizin, (3-beta,20-beta)-20-Carboxy-11-oxo-30-norolean-12-en-3-yl 2-O-beta-D-glucopyranuronosyl-alpha-D-glucopyranosiduronic acid], in the data set with FipV, the “virus replication, FipV” value was “significantly reduced”. In addition, the “induction of nitrous oxide synthase” value in the data set with nitrous oxide synthase is recorded as “induced nitrous oxide synthase”. The CC50 in the data set with Vero cells is reported as >20,000 mg/L. Also, the “virus replication, TGEV” value in the data set on TGEV is on record as “significantly reduced”. Besides, in [4] (1000 mg/L), the “expression of viral antigens” value is “much lower”. Also, the “replication of the virus” value in data set [4] (4000 mg/L) is given as “completely blocked replication of the virus”. Moreover, in the data set “in vitro”, the CC50 was over 20000 µg/mL and the cytotoxicity lay within 20 to 30%.
The compound `COc1c(C)c2c(c(O)c1C/C=C(\C)CCC(=O)O)C(=O)OC2` [Mycophenolic acid] returned a CC50 in the data set “in vitro” of over 50 µg/mL.
The compound `NC(=O)c1[nH]nc([C@@H]2O[C@H](CO)[C@@H](O)[C@H]2O)c1O` [Pyrazofurin] yielded a CC50 in the data set “in vitro” of 52 µg/mL.
The same measure, in the same setting: to `NC(=O)c1ncn([C@@H]2O[C@H](CO)[C@@H](O)[C@H]2O)n1` [Ribavirin] belongs over 1000 µg/mL.
